Consider eight compounds from PubChem BioAssay (NCI).

Test systems include OVCAR-3 ovarian; BT-549 breast; CAKI-1 renal; SNB-75 CNS; KM12 colon; T-47D breast; DU-145 prostate; U251 CNS; SK-OV-3 ovarian; MDA-MB-231 breast.
What all share (assay): NCI tumour cell line growth inhibition, 48 h

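Grown in 96-well plates, cells were treated for 48 hours with each compound at five concentrations. Insufficient inhibition: endpoint recorded as highest concentration tested. GI50 marks 50% less growth. The concentration for full growth arrest is given as TGI.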

As to `CN=C1OC2(c3ccccc3)C3=C(OC(=NC)N2C)C(=O)OC3(c2ccccc2)N1C` (stereo not given), the TGI in the assay on OVCAR-3 ovarian, in the assay on BT-549 breast, in the assay with CAKI-1 renal, in the assay with SNB-75 CNS, in the assay with KM12 colon and in the assay on T-47D breast was greater than 100 µM throughout. Besides, the TGI with DU-145 prostate, with U251 CNS, in the assay on SK-OV-3 ovarian and with MDA-MB-231 breast was greater than 100 µM throughout.
For `C=CCc1cc(Nc2c3ccc(Cl)cc3nc3ccc(OC)cc23)cc(CN(CC)CC)c1O`, the GI50 in the assay on OVCAR-3 ovarian is 1.88 µM; in the assay on BT-549 breast, 1.38 µM; with CAKI-1 renal, 2.4 µM; in the assay with SNB-75 CNS, 3.85 µM; in the assay with KM12 colon, 2.08 µM; with T-47D breast, 0.499 µM. For the same compound, the GI50 in the assay with DU-145 prostate was 1.96 µM; in the assay on U251 CNS, 0.802 µM; in the assay with SK-OV-3 ovarian, 1.9 µM; in the assay on MDA-MB-231 breast, 2.35 µM. In addition, the TGI came out at 11.5 µM with OVCAR-3 ovarian; 8.1 µM in the assay with BT-549 breast; 11.1 µM in the assay on CAKI-1 renal; 19.3 µM with SNB-75 CNS; 12.3 µM in the assay on KM12 colon; 4.28 µM in the assay with T-47D breast. Further, the TGI in the assay on DU-145 prostate was determined as 14.2 µM; with U251 CNS, 10.8 µM; with SK-OV-3 ovarian it was 6.62 µM; with MDA-MB-231 breast, 10.8 µM.
As to `CCN1C(=O)N(CC)C2C1NN=c1s/c(=C\c3ccc(F)cc3)c(=O)n12` (stereo not given), the GI50 in the assay on OVCAR-3 ovarian was 0.0924 µM; with BT-549 breast, 0.759 µM; with CAKI-1 renal it was 0.0722 µM; in the assay on SNB-75 CNS, 0.0474 µM; in the assay on KM12 colon it was 0.0913 µM; in the assay on T-47D breast it was 30.8 µM. Besides, the GI50 in the assay on DU-145 prostate is 0.3 µM; in the assay on U251 CNS, 0.241 µM; in the assay on SK-OV-3 ovarian it was 0.343 µM; in the assay on MDA-MB-231 breast, 0.406 µM. For the same compound, the TGI with OVCAR-3 ovarian was 0.664 µM; in the assay on BT-549 breast, greater than 26.1 µM; with CAKI-1 renal it was greater than 100 µM; with SNB-75 CNS, 0.611 µM; in the assay with KM12 colon, greater than 100 µM; with T-47D breast, greater than 100 µM. Besides, the TGI is greater than 37.8 µM in the assay on DU-145 prostate, greater than 100 µM in the assay with U251 CNS, greater than 100 µM in the assay with SK-OV-3 ovarian and greater than 80.2 µM in the assay with MDA-MB-231 breast.
For the compound `c1cc(N2CCN(c3ccc(C4=NCCCN4)cc3)CC2)ccc1C1=NCCCN1`, the GI50 in the assay on OVCAR-3 ovarian is greater than 32.2 µM; in the assay on BT-549 breast it was greater than 100 µM; in the assay on CAKI-1 renal it was greater than 100 µM; in the assay with SNB-75 CNS it was greater than 89.4 µM; with KM12 colon, greater than 42.1 µM; with T-47D breast, greater than 100 µM. Also, the GI50 in the assay with DU-145 prostate was greater than 66.6 µM; in the assay with U251 CNS it was greater than 74.6 µM; in the assay with SK-OV-3 ovarian, greater than 100 µM; in the assay on MDA-MB-231 breast it was greater than 62.6 µM. Besides, the TGI in the assay with OVCAR-3 ovarian, in the assay with BT-549 breast, in the assay with CAKI-1 renal, in the assay on SNB-75 CNS, with KM12 colon and in the assay on T-47D breast was greater than 100 µM each time. In addition, the TGI with DU-145 prostate, in the assay with U251 CNS, in the assay with SK-OV-3 ovarian and with MDA-MB-231 breast was greater than 100 µM in each case.
Turning to `CCOC(=O)c1cc2c(cc1Cl)SC(=Nc1ccccc1)N(S(=O)(=O)c1ccc(Br)s1)S2(=O)=O`, the GI50 was 12.2 µM in the assay with OVCAR-3 ovarian; 17.3 µM in the assay with BT-549 breast; 17.5 µM in the assay on CAKI-1 renal; 23.4 µM in the assay with SNB-75 CNS; 17.6 µM with KM12 colon; 15.6 µM with T-47D breast. The GI50 was 19 µM in the assay on DU-145 prostate, 11.7 µM in the assay on U251 CNS, 34.5 µM in the assay with SK-OV-3 ovarian and 14.1 µM in the assay on MDA-MB-231 breast. The TGI in the assay on OVCAR-3 ovarian is 24.7 µM; in the assay on BT-549 breast, 34.8 µM; with CAKI-1 renal, 32.8 µM; in the assay with SNB-75 CNS, 60.8 µM; in the assay on KM12 colon, 33.3 µM; in the assay on T-47D breast, 53.9 µM. The TGI in the assay on DU-145 prostate was 37 µM; with U251 CNS, 25.8 µM; in the assay on SK-OV-3 ovarian, greater than 100 µM; with MDA-MB-231 breast, 30.6 µM.
Turning to `COc1ccc(/C=C(\C)[N+](=O)[O-])cc1OC`, the GI50 is 1.87 µM with OVCAR-3 ovarian; 1.86 µM in the assay on BT-549 breast; 1.88 µM in the assay on CAKI-1 renal; 2.2 µM with SNB-75 CNS; 4.49 µM in the assay with KM12 colon; 1.88 µM in the assay with T-47D breast. Moreover, the GI50 in the assay with DU-145 prostate is 1.79 µM; with U251 CNS it was 4.39 µM; with SK-OV-3 ovarian it was 13.9 µM; with MDA-MB-231 breast it was 2.33 µM. Besides, the TGI with OVCAR-3 ovarian came to 3.29 µM; in the assay with BT-549 breast, 3.36 µM; in the assay with CAKI-1 renal it was 3.89 µM; in the assay with SNB-75 CNS, 12.2 µM; in the assay on KM12 colon, 16.4 µM; with T-47D breast, 5.1 µM. Moreover, the TGI in the assay with DU-145 prostate came to 3.22 µM; in the assay with U251 CNS it was 15.9 µM; with SK-OV-3 ovarian, 27.4 µM; in the assay on MDA-MB-231 breast, 6.21 µM.
For the compound `COc1ccc2c(c1)C(=O)c1c-2c(OCCN(C)C)nc2ccccc12`, the GI50 is 2.48 µM with OVCAR-3 ovarian; 12 µM in the assay on BT-549 breast; 1.47 µM in the assay with CAKI-1 renal; 7.62 µM in the assay on SNB-75 CNS; 1.19 µM in the assay on KM12 colon; 4.05 µM in the assay on T-47D breast. Besides, the GI50 is 2.91 µM with DU-145 prostate, 2.28 µM in the assay with U251 CNS, 4.87 µM in the assay with SK-OV-3 ovarian and 4.02 µM with MDA-MB-231 breast. Besides, the TGI with OVCAR-3 ovarian was 7.01 µM; in the assay with BT-549 breast, 26 µM; in the assay with CAKI-1 renal, 4.14 µM; with SNB-75 CNS, 21.6 µM; in the assay on KM12 colon it was 3.28 µM; in the assay on T-47D breast it was 18.3 µM. The TGI was determined as 9 µM in the assay on DU-145 prostate, 9.87 µM with U251 CNS, 35.3 µM in the assay on SK-OV-3 ovarian and 20.8 µM in the assay on MDA-MB-231 breast.
For the compound `FC(F)(F)c1cccc(-c2nn3ncccc3c2-c2ccnc(Nc3ccc4c(c3)OCCO4)n2)c1`, the GI50 was 13.7 µM in the assay with OVCAR-3 ovarian; 16.4 µM with BT-549 breast; 7.66 µM in the assay on CAKI-1 renal; greater than 18.6 µM in the assay on SNB-75 CNS; 14.1 µM in the assay with KM12 colon; 7.37 µM in the assay on T-47D breast. Moreover, the GI50 is 19.2 µM in the assay on DU-145 prostate, 19.5 µM in the assay with U251 CNS, 8.99 µM with SK-OV-3 ovarian and 9.02 µM in the assay on MDA-MB-231 breast. Also, the TGI with OVCAR-3 ovarian, in the assay on BT-549 breast, in the assay on CAKI-1 renal, in the assay on SNB-75 CNS, in the assay on KM12 colon and in the assay with T-47D breast was greater than 25 µM each time. In addition, the TGI in the assay with DU-145 prostate, with U251 CNS, with SK-OV-3 ovarian and in the assay on MDA-MB-231 breast was greater than 25 µM each time.
